Experimental data as given in ChEMBL document CHEMBL5463729, “Data for DCP probe BAY 1753011” (2023).

Legend:
[1] = target: Ephrin type-B receptor 4 (Homo sapiens) (UniProt P54760); test: Inhibition of EphB4(h) at 10.0 µM in the Eurofins Kinase panel; settings: Compound concentration 10.0 uM
[2] = target: T1, Alpha-1A adrenergic receptor (Homo sapiens) (UniProt P35348); test: Inhibition of Adrenergic alpha1A at compound concentration of 10.0 uM in the Eurofins-Panlabs radioligand binding assay (Eurofins_assay_203110); set-up: ligand concentration 0.25 nM; settings: Rattus norvegicus; Compound concentration 10.0 uM
T1 sequence (whole entry): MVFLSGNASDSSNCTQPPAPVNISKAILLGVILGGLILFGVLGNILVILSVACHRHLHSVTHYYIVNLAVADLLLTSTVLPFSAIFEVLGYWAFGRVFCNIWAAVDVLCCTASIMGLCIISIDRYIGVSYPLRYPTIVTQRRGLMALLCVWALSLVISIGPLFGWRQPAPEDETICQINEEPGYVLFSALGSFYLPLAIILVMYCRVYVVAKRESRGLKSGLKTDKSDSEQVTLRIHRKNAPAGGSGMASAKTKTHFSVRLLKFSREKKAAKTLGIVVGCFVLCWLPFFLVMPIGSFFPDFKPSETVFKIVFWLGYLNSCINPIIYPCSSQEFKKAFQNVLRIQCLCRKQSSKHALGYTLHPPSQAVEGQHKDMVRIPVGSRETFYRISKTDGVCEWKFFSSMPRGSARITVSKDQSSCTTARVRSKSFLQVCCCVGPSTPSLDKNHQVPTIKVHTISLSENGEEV

[3] = target: Protein kinase C epsilon type (Homo sapiens) (UniProt Q02156); test: Inhibition of PKCepsilon(h) at 10.0 µM in the Eurofins Kinase panel; settings: Compound concentration 10.0 uM
Oryctolagus cuniculus = species on record: Oryctolagus cuniculus; settings: Compound concentration 10.0 uM
[4] = target: Serine/threonine-protein kinase 24 (Homo sapiens) (UniProt Q9Y6E0); test: Inhibition of MST3(h) at 10.0 µM in the Eurofins Kinase panel; settings: Compound concentration 10.0 uM
[5] = target: TRAF2 and NCK-interacting protein kinase (Homo sapiens) (UniProt Q9UKE5); test: Inhibition of TNIK(h) at 10.0 µM in the Eurofins Kinase panel; settings: Compound concentration 10.0 uM
[6] = target: Tyrosine-protein kinase JAK2 (Homo sapiens) (UniProt O60674); test: Inhibition of JAK2(h) at 10.0 µM in the Eurofins Kinase panel; settings: Compound concentration 10.0 uM
[7] = target: Ephrin type-B receptor 1 (Homo sapiens) (UniProt P54762); test: Inhibition of EphB1(h) at 10.0 µM in the Eurofins Kinase panel; settings: Compound concentration 10.0 uM
[8] = target: Serine/threonine-protein kinase NIM1 (Homo sapiens) (UniProt Q8IY84); test: Inhibition of NIM1(h) at 10.0 µM in the Eurofins Kinase panel; settings: Compound concentration 10.0 uM
Homo sapiens = species on record: Homo sapiens; settings: Compound concentration 10.0 uM
[9] = target: Protein kinase C alpha type (Homo sapiens) (UniProt P17252); test: Inhibition of PKCalpha(h) at 10.0 µM in the Eurofins Kinase panel; settings: Compound concentration 10.0 uM
[10] = target: T2, cGMP-dependent protein kinase 1 (Homo sapiens) (UniProt Q13976); test: Inhibition of PKG1alpha(h) at 10.0 µM in the Eurofins Kinase panel; settings: Compound concentration 10.0 uM
T2 sequence (whole entry): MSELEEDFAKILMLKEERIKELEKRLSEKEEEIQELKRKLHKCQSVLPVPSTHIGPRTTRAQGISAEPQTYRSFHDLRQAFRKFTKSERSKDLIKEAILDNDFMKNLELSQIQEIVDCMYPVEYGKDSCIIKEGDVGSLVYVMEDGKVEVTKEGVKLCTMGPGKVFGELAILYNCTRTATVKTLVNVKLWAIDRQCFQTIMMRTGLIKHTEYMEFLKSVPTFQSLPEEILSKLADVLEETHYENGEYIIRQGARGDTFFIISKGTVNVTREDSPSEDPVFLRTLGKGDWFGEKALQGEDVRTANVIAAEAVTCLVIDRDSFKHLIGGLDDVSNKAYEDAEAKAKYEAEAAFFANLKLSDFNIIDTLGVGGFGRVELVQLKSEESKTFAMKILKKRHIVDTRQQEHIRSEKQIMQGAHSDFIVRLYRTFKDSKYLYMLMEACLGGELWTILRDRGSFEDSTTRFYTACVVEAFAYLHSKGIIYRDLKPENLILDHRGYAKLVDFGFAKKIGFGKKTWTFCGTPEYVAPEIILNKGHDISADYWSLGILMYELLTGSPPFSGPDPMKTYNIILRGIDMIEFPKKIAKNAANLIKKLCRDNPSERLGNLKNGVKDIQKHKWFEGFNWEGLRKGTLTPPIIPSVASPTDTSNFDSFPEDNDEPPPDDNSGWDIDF

[11] = target: Serine/threonine-protein kinase PLK1 (Homo sapiens) (UniProt P53350); test: Inhibition of Plk1(h) at 10.0 µM in the Eurofins Kinase panel; settings: Compound concentration 10.0 uM
[12] = target: Mu-type opioid receptor (Homo sapiens) (UniProt P35372); settings: Compound concentration 10.0 uM
Mus musculus = species on record: Mus musculus; test: Inhibition of Interleukin IL-1 at 10 µM in the Eurofins-Panlabs radioligand binding assay (Eurofins_assay_243520); set-up: ligand concentration 0.1 nM; settings: Compound concentration 10.0 uM
hERG (KCNH2) = hERG (KCNH2) (Homo sapiens, UniProt Q12809); test: Inhibition of Potassium Channel hERG at 10 µM in the Eurofins-Panlabs radioligand binding assay (Eurofins_assay_265900); set-up: ligand concentration 1.5 nM, non-specific ligand with concentration Astemizole, incubation time 60 min, incubation temperature 25 °C; settings: HEK-293 cells expressing human recombinant hERG, probe [3H] Astemizole, compound concentration 10 uM
Rattus norvegicus = species on record: Rattus norvegicus; test: Inhibition of Rolipram at 10 µM in the Eurofins-Panlabs radioligand binding assay (Eurofins_assay_268811); format: protein assay; set-up: ligand concentration 1.8 nM; settings: Compound concentration 10.0 uM
[13] = target: T3, 5-hydroxytryptamine receptor 3A (Homo sapiens) (UniProt P46098); test: Inhibition of Serotonin (5-Hydroxytryptamine) 5-HT3 at 10 µM in the Eurofins-Panlabs radioligand binding assay (Eurofins_assay_271910); set-up: ligand concentration 0.69 nM; settings: Compound concentration 10.0 uM
T3 sequence (whole entry): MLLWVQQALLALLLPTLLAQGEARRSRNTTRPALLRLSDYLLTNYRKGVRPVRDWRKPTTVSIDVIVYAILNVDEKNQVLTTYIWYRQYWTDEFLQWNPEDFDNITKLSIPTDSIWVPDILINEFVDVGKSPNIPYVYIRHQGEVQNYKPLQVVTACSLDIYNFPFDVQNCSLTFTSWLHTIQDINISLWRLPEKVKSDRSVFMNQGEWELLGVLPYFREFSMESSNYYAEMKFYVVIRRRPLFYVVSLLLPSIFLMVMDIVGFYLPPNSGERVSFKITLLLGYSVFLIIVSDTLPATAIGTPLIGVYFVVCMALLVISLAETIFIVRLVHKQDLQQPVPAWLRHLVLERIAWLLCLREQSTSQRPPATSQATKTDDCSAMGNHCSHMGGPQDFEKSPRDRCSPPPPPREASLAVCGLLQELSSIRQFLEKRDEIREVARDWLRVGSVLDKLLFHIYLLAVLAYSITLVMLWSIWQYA

[14] = target: Platelet-activating factor receptor (Homo sapiens) (UniProt P25105); test: Inhibition of Platelet Activating Factor (PAF) at 10 µM in the Eurofins-Panlabs radioligand binding assay (Eurofins_assay_265010); settings: Compound concentration 10.0 uM
Platelet-activating factor receptor (Homo sapiens), sequence (P25105 whole entry): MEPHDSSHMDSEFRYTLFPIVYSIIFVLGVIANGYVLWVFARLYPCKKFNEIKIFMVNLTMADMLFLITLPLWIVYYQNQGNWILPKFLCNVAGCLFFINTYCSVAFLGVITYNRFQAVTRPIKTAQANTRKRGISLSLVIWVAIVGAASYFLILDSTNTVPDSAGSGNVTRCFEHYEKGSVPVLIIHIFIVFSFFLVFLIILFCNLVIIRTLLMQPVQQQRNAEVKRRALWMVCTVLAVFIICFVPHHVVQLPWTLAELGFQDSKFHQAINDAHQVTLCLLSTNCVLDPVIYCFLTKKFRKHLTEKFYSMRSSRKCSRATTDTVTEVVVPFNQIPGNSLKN

Mu-type opioid receptor (Homo sapiens), sequence (P35372 whole entry): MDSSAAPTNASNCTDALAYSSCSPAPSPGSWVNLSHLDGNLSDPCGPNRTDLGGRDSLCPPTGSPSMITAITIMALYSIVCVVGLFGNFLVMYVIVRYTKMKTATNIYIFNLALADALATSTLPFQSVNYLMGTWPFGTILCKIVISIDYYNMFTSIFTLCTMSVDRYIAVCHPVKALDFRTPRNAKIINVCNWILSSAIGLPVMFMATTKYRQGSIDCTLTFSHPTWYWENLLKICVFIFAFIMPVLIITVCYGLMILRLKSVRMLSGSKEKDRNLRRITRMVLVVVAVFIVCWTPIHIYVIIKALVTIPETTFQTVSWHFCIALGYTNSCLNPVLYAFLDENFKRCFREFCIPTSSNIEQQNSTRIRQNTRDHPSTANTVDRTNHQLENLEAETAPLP
Serine/threonine-protein kinase 24 (Homo sapiens), sequence (Q9Y6E0 whole entry, looked up): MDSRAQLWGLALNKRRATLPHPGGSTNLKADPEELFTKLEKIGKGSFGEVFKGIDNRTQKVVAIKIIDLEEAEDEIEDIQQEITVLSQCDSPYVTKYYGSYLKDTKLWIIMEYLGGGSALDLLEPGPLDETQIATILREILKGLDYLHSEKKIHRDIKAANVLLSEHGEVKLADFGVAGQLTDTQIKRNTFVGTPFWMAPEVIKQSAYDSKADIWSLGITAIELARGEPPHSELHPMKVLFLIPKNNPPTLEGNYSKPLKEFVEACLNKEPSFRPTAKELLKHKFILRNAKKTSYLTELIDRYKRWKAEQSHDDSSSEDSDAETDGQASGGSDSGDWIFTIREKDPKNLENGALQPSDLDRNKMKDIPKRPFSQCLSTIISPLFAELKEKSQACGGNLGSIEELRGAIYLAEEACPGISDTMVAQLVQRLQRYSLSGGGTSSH
Serine/threonine-protein kinase PLK1 (Homo sapiens), sequence (P53350 whole entry): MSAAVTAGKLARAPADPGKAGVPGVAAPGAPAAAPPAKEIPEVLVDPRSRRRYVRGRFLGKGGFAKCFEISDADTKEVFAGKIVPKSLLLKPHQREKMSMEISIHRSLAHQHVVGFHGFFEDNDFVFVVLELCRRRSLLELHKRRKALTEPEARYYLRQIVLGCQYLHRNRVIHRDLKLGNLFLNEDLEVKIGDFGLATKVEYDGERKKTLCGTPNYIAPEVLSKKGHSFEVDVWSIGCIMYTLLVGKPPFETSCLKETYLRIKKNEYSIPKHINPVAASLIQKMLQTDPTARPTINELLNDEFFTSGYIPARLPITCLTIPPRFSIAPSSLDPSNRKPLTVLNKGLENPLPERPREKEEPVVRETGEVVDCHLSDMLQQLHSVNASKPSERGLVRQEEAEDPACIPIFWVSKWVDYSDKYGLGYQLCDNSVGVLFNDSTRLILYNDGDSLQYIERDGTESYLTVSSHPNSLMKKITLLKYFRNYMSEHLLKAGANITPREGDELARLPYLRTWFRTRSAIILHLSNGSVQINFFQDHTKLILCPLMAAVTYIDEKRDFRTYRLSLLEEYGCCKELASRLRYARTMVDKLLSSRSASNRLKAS
Serine/threonine-protein kinase NIM1 (Homo sapiens), sequence (Q8IY84 whole entry): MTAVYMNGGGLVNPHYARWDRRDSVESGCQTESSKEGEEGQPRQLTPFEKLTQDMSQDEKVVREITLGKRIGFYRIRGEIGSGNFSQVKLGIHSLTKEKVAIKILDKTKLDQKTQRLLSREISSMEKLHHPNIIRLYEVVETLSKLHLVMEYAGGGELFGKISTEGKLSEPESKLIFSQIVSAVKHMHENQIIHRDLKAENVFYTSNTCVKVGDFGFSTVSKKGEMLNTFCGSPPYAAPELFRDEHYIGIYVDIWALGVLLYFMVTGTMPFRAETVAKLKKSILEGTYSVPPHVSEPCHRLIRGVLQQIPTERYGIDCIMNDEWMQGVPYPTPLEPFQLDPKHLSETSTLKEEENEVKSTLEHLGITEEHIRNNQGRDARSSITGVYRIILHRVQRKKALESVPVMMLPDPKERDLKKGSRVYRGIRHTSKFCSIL
Protein kinase C epsilon type (Homo sapiens), sequence (Q02156 whole entry): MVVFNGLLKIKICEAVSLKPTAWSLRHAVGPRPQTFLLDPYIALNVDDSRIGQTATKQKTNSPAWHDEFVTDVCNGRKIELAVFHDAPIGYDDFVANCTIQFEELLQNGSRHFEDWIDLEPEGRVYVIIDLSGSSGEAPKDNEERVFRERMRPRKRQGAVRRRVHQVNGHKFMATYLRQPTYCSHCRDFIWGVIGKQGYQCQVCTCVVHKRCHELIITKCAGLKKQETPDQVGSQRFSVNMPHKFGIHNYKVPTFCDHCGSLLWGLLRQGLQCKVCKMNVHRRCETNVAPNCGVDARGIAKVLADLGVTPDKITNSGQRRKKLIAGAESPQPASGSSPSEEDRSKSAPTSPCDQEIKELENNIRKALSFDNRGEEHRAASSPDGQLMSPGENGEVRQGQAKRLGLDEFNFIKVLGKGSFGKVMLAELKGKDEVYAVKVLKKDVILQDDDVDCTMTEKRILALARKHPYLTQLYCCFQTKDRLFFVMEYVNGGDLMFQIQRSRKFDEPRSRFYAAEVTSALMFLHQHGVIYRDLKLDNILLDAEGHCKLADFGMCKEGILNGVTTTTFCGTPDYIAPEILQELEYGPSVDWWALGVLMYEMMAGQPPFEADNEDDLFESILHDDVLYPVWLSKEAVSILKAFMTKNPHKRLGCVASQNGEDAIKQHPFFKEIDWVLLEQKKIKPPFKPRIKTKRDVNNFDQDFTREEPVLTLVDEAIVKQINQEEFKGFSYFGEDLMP
Ephrin type-B receptor 1 (Homo sapiens), sequence (P54762 whole entry): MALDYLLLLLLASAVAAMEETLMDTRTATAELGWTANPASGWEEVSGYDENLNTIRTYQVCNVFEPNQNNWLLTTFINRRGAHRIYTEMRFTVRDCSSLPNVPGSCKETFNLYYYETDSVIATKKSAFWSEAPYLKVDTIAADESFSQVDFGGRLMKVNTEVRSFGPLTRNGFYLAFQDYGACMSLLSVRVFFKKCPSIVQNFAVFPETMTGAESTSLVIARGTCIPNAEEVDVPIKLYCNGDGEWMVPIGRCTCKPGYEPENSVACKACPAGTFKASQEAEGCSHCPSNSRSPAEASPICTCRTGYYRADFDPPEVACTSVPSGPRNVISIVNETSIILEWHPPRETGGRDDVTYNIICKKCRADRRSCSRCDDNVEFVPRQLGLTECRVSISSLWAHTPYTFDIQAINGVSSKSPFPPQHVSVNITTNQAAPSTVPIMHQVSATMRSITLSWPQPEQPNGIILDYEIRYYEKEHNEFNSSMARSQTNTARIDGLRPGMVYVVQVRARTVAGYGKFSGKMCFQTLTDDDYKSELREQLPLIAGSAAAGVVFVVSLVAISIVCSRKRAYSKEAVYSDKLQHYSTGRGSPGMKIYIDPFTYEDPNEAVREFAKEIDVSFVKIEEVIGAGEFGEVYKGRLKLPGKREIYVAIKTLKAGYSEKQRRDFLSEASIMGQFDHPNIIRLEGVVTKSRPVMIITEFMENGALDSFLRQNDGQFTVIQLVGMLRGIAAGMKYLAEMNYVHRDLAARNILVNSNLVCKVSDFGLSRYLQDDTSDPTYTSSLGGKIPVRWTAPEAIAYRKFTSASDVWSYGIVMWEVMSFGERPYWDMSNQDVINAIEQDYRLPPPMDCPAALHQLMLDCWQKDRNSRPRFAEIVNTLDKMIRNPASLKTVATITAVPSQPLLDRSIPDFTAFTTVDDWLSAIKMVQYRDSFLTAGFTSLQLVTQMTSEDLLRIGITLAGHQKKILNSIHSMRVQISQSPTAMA

SMILES	inhibition [1] [%]	inhibition [2] [%]	inhibition [3] [%]	inhibition (Oryctolagus cuniculus) [%]	inhibition [4] [%]	inhibition [5] [%]	inhibition [6] [%]	inhibition [7] [%]	inhibition [8] [%]	inhibition (Homo sapiens) [%]	inhibition [9] [%]	inhibition [10] [%]	inhibition [11] [%]	inhibition [12] [%]	inhibition (Mus musculus) [%]	inhibition at 60 min, 10 µM (hERG (KCNH2))	inhibition (Rattus norvegicus) [%]	inhibition [13] [%]	inhibition [14] [%]
O=c1n(Cc2cncn2-c2cccc(Cl)c2)nc(-c2ccc(Cl)cc2)n1C[C@H](O)C(F)(F)F	-2.17	3	11	-5	5.64	-7.62	-4.95	9.79	3.02	-5	2.18	-0.21	-0.49	6.13	–	–	–	–	–
C[C@H](O)c1nc(Cn2nc(-c3ccc(Cl)cc3)n(C[C@H](O)C(F)(F)F)c2=O)nn1-c1cccc(Cl)c1 [PECAVAPTAN]	–	–	19.1	–	3.02	–	–	4.68	5.79	–	1.13	-5.35	-2.91	14.4	15	-3% (not active)	-2	-2	17
